Laboratory results: patent US20200031820A1, “3-CARBOXYLIC ACID PYRROLES AS NRF2 REGULATORS” (GLSXOSMITHKLINE INTELLECTUAL PROPERTY DEVELOPMENT LIMITED, priority 2016, published 2020)

Key:
[1] = system: NQO1 specific enzyme activity in BEAS-2B cells (marker for NRF2 activation); experiment: Beas2B NQO1 MTT Assay; assay type: cell-based; conditions: Homo sapiens, NQO1 specific activity induction, 48 hours with compound
Source text: NAD(P)H:quinone oxidoreductase 1 (NQO1), also called DT diaphorase, is a homodimeric FAD-containing enzyme that catalyses obligatory NAD(P)H-dependent two-electron reductions of quinones and protects cells against the toxic and neoplastic effects of free radicals and reactive oxygen species arising from one-electron reductions. The transcription of NQO1 is finely regulated by NRF2, and thus NQO1 activity is a good marker for NRF2 activation. On day one, frozen BEAS-2B cells (ATCC) were thawed in a water bath, counted, and re-suspended at a concentration of 250,000 cells/mL. Fifty microliters of cells were plated in 384 well black clear-bottomed plates. Plates were incubated at 37° C., 5% CO2 overnight. On day two, plates were centrifuged and 50 nL of compound or controls were added to the cells. Plates were then incubated at 37° C., 5% CO2 for 48 hours. On day four, medium was aspirated from the plate and crude cell lysates were made by adding 13 uL of 1× Cell Signaling Technologies lysis buffer with 1 Complete, Mini, EDTA-free Protease Inhibitor Tablet (Roche) for each 10 mL of lysis buffer. After lysis plates were incubated for 20 minutes at room temperature. Two microliters of lysate were removed for use in Cell Titer Glo assay (Promega) and MTT cocktail was prepared (Prochaska et. al. 1998) for measurement of NQO1 activity. Fifty microliters of MTT cocktail was added to each well, plate was centrifuged, and analysed on an Envision plate reader (Perkin Elmer) using Absorbance 570 nm label for 30 minutes. Product formation was measured kinetically and the pEC50 of NQO1 specific activity induction was calculated by plotting the change in absorbance (Delta OD/min) versus the log of compound concentration followed by 3-parameter fitting.
EC50s <1 nM (+++++), EC50s 10 nM-1 nM (++++), EC50s 10-100 nM (+++), EC50s 100 nM-1 μM (++), EC50s 1-10 μM (+), EC50s >10 μM (−), or were not determined (ND).

[2] = target: T1, Keap1 (321-609) Kelch domain / TAMRA-labeled 16mer NRF2 peptide (ETGE motif) (Homo sapiens, UniProt Q14145); experiment: NRF2-Keap1 FP Assay; assay type: binding; conditions: 20 nM Keap1 (321-609), 8 nM Tamra labeled peptide
T1 construct: the Kelch domain (321-609) of Keap1 is used
Source text: One model for the NRF2-Keap1 interaction is through two binding sites in the Neh2 domain on NRF2. The two sites are referred to as the DLG binding motif (latch domain, uM affinity) and the ETGE binding motif (hinge domain, nM affinity). The Keap1 protein consists of an N-terminal region (NTR), a broad complex, tramtrack, and brick a'brac domain (BTB), an intervening region (IVR), a double glycine repeat domain (DGR or Kelch), and a C-terminal region. The DLG and ETGE motifs of NRF2's Neh2 domain bind to the Kelch domain of Keap1 at different affinities. In the Keap1 Kelch fluorescence polarization (FP) assay, a TAMRA-labeled 16mer peptide (AFFAQLQLDEETGEFL) containing the ETGE motif of NRF2 and the Kelch domain (321-609) of Keap1 is used. The assay determines if a compound interferes with the binding between Keap1 […] and the TAMRA-labeled peptide. Binding of TAMRA-labeled NRF2 peptide to Keap1 (321-609) results in a high FP signal. If a compound interferes with the binding between the peptide and the protein, it will cause the assay signal to decrease. Thus, assay signal is inversely proportional to binding inhibition.
100 nl of 100× compound dose response curves (serial 3-fold dilutions) in DMSO were stamped using an Echo liquid handling system (Labcyte) into 384-well low volume black assay plates (Greiner, #784076), with DMSO in columns 6 and 18. The top concentration of compound was located in columns 1 and 13. Keap1 (321-609) was diluted to 40 nM (2×) in 1× assay buffer (50 mM Tris, pH 8.0, 100 mM NaCl, 5 mM MgCl2, 1 mM DTT, 2 mM CHAPS, and 0.005% BSA) and 5 ul was added using a Multidrop Combi (Thermo Electron Corporation) equipped with a metal tip dispenser to all wells of the compound plate, except column 18. Column 18 received only 5 ul of assay buffer. Immediately, 5 uL of 16 nM (2×) of Tamra labeled peptide (AFFAQLQLDEETGEFL, 21st Century Biochemicals) was added to all wells of the plate. The plates were spun at 500 rpm for 1 min, incubated for 1 hr at room temperature, and read on an Analyst GT (Molecular Devices) equipped with excitation (530/25 nm) and emission (580/10 nm) filters designed for Tamra probes. A 561 nm dichroic mirror was also used in the Analyst. The final assay concentrations of Keap1 (321-609) and Tamra labeled peptide were 20 nM and 8 nM, respectively. Fluorescence measurements, represented as mP, were used in the transformation of the data. Compound activity was calculated based on percent inhibition, normalized against controls in the assay (Control 1 contains the Tamra peptide and Keap1 (321-609) together (0% response) and control 2 contains the Tamra peptide alone (100% response)). Data analysis was handled using the software package Abase XE (Surrey, United Kingdom. The % inhibition values were calculated by the equation:
100−(100*((compound response−average control 2)/(average control 1−average control2))). For calculation of pIC50s, Abase XE uses a four parameter equation.
IC50s<1 nM (+++++), IC50s 1 nM-10 nM (++++), IC50s 10-100 nM (+++), IC50s 100 nM-1 μM (++), IC50s 1-10 μM (+), IC50s >10 μM (−), or were not determined (ND).

T1 sequence (Q14145 321-609): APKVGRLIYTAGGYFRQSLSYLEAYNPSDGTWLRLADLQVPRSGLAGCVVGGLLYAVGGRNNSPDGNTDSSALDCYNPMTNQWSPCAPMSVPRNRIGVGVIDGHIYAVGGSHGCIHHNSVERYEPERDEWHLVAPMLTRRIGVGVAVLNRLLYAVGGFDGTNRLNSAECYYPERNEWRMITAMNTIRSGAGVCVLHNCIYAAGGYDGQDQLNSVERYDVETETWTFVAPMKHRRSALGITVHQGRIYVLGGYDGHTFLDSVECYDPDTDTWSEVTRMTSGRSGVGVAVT

| SMILES | EC50 [1] | EC50 [2] |
| --- | --- | --- |
| C[C@H]1Cc2ccc(C(F)(F)F)cc2S(=O)(=O)N(C2CCc3c2cccc3-n2ccc(C(=O)O)c2C2CC2)C1 (mixture of isomers) [Example 12, 2-Cyclopropyl-1-(1-((S)-4-methyl-1,1-dioxido-8-(trifluoromethyl)-4,5-dihydrobenzo[f][1,2]thiazepin-2(3H)-yl)-2,3-dihydro-1H-inden-4-yl)-1H-pyrrole-3-carboxylic acid] | 100 to 1000 nM | 1000 to 10000 nM |
| C[C@H]1Cc2ccc(C(F)(F)F)cc2S(=O)(=O)N(Cc2cccc(-n3ccc(C(=O)O)c3[C@@H]3C[C@H]3c3cn(C)nn3)c2)C1 (racemic) [Example 1, 1-(3-(((S)-4-Methyl-1,1-dioxido-8-(trifluoromethyl)-4,5-dihydrobenzo[f]-[1,2]thiazepin-2(3H)-yl)methyl)phenyl)-2-(trans-2-(1-methyl-1H-1,2,3-triazol-4-yl)cyclopropyl)-1H-pyrrole-3-carboxylic acid] | 10 to 100 nM | 10 to 100 nM |
| C[C@H]1Cc2cc(C(F)(F)F)ccc2S(=O)(=O)N(Cc2cccc(-n3ccc(C(=O)O)c3[C@@H]3C[C@H]3c3cn(C)nn3)c2)C1 (racemic) [Example 2, 1-(3-(((S)-4-methyl-1,1-dioxido-7-(trifluoromethyl)-4,5-dihydrobenzo[f][1,2]thiazepin-2(3H)-yl)methyl)phenyl)-2-(trans-2-(1-methyl-1H-1,2,3-triazol-4-yl)cyclopropyl)-1H-pyrrole-3-carboxylic acid] | 10 to 100 nM | 10 to 100 nM |
| Cc1c(CN2C[C@@H](C)Cc3ccc(C(F)(F)F)cc3S2(=O)=O)cccc1-n1ccc(C(=O)O)c1[C@@H]1C[C@H]1c1cn(C)nn1 (racemic) [Example 10, rac-2-(trans-2-(1-methyl-1H-1,2,3-triazol-4-yl)cyclopropyl)-1-(2-methyl-3-(((S)-4-methyl-1,1-dioxido-8-(trifluoromethyl)-4,5-dihydrobenzo[f][1,2]thiazepin-2(3H)-yl)methyl)phenyl)-1H-pyrrole-3-carboxylic acid] | 100 to 1000 nM | 100 to 1000 nM |
| Cc1ccc(CN2C[C@@H](C)Cc3ccc(C(F)(F)F)cc3S2(=O)=O)cc1-n1ccc(C(=O)O)c1[C@@H]1C[C@H]1c1cn(C)nn1 (racemic) [Example 11, rac-2-(trans-2-(1-methyl-1H-1,2,3-triazol-4-yl)cyclopropyl)-1-(2-methyl-5-(((S)-4-methyl-1,1-dioxido-8-(trifluoromethyl)-4,5-dihydrobenzo[f][1,2]thiazepin-2(3H)-yl)methyl)phenyl)-1H-pyrrole-3-carboxylic acid] | 100 to 1000 nM | 100 to 1000 nM |
| C[C@H](Oc1cccc(-c2cccc(-n3ccc(C(=O)O)c3[C@@H]3C[C@H]3c3cn(C)nn3)c2)c1)C1CCCCC1 (racemic) [Example 13, 1-(3′-((S)-1-Cyclohexylethoxy)-[1,1′-biphenyl]-3-yl)-2-(trans-2-(1-methyl-1H-1,2,3-triazol-4-yl)cyclopropyl)-1H-pyrrole-3-carboxylic acid] | 10 to 100 nM | 10 to 100 nM |
| CCC[C@@H]1CCCCN1C(=O)c1cccc(-c2cccc(-n3ccc(C(=O)O)c3[C@@H]3C[C@H]3c3cn(C)nn3)c2)c1 (racemic) [Example 14, 2-(trans-2-(1-methyl-1H-1,2,3-triazol-4-yl)cyclopropyl)-1-(3′-((R)-2-propylpiperidine-1-carbonyl)-[1,1′-biphenyl]-3-yl)-1H-pyrrole-3-carboxylic acid] | 10 to 100 nM | 10 to 100 nM |
| CCC[C@@H]1CCCCN1C(=O)c1cccc(-c2cccc(-n3ccc(C(=O)O)c3[C@@H]3C[C@H]3c3cn(C)nn3)c2)c1F (racemic) [Example 15, 1-(2′-fluoro-3′-((R)-2-propylpiperidine-1-carbonyl)-[1,1′-biphenyl]-3-yl)-2-(trans-2-(1-methyl-1H-1,2,3-triazol-4-yl)cyclopropyl)-1H-pyrrole-3-carboxylic acid] | 1 to 10 nM | 10 to 100 nM |
| Cn1cc([C@@H]2C[C@H]2c2c(C(=O)O)ccn2-c2cccc(CN3Cc4cc(F)ccc4OC(C)(C)C3)c2)nn1 (racemic) [Example 19] | 100 to 1000 nM | 10 to 100 nM |
| Cn1cc([C@@H]2C[C@H]2c2c(C(=O)O)ccn2-c2cccc(CN3Cc4cc(Br)ccc4OC(C)(C)C3)c2)nn1 (racemic) [Example 20] | 100 to 1000 nM | 10 to 100 nM |
| Cn1cc([C@@H]2C[C@H]2c2c(C(=O)O)ccn2-c2cccc(CN3Cc4ccccc4CC(C)(C)C3)c2)nn1 (racemic) [Example 21] | 100 to 1000 nM | 10 to 100 nM |
| CCCC[C@H]1Cc2ccccc2S(=O)(=O)N(Cc2cccc(-n3ccc(C(=O)O)c3[C@@H]3C[C@H]3c3cn(C)nn3)c2)C1 [Example 3, 1-(3-(((S)-4-butyl-1,1-dioxido-4,5-dihydrobenzo[f][1,2]thiazepin-2(3H)-yl)methyl)phenyl)-2-((1R,2R)-2-(1-methyl-1H-1,2,3-triazol-4-yl)cyclopropyl)-1H-pyrrole-3-carboxylic acid] | 10 to 100 nM | 10 to 100 nM |
| CCCC[C@H]1Cc2ccc(C(F)(F)F)cc2S(=O)(=O)N(Cc2cccc(-n3ccc(C(=O)O)c3[C@@H]3C[C@H]3c3cn(C)nn3)c2)C1 [Example 6, 1-(3-(((S)-4-butyl-1,1-dioxido-8-(trifluoromethyl)-4,5-dihydrobenzo[f][1,2]thiazepin-2(3H)-yl)methyl)phenyl)-2-((1R,2R)-2-(1-methyl-1H-1,2,3-triazol-4-yl)cyclopropyl)-1H-pyrrole-3-carboxylic acid] | < 1 nM | 10 to 100 nM |
| CC[C@H]1Cc2cc(C(F)(F)F)ccc2S(=O)(=O)N(Cc2cccc(-n3ccc(C(=O)O)c3[C@@H]3C[C@H]3c3cn(C)nn3)c2)C1 [Example 7, 1-(3-(((S)-4-ethyl-1,1-dioxido-7-(trifluoromethyl)-4,5-dihydrobenzo[f][1,2]thiazepin-2(3H)-yl)methyl)phenyl)-2-((1R,2R)-2-(1-methyl-1H-1,2,3-triazol-4-yl)cyclopropyl)-1H-pyrrole-3-carboxylic acid] | 1 to 10 nM | 10 to 100 nM |
| C[C@H]1Cc2ccc(Br)cc2S(=O)(=O)N(Cc2cccc(-n3ccc(C(=O)O)c3[C@@H]3C[C@H]3c3cn(C)nn3)c2)C1 [Example 8, 1-(3-(((S)-8-bromo-4-methyl-1,1-dioxido-4,5-dihydrobenzo[f][1,2]thiazepin-2(3H)-yl)methyl)phenyl)-2-((1R,2R)-2-(1-methyl-1H-1,2,3-triazol-4-yl)cyclopropyl)-1H-pyrrole-3-carboxylic acid] | 1 to 10 nM | 10 to 100 nM |
